Reference: ChEMBL document CHEMBL3132851, “Achieving improved permeability by hydrogen bond donor modulation in a series of MGAT2 inhibitors” (Medchemcomm, 2013)
Converted amounts (≈) assume the structure as drawn.

What was measured:
[1] = (§1) Apparent permeability of the compound from apical to basolateral side in human Caco2 cells; settings: Caco-2, Papp
[2] = Lipophilicity, log D of the compound at pH 7.4 after 30 mins by shake-flask method; settings: buffer; for logD at 0.5 h: pH 7.4, logD; for logD: pH 7.4, 0.5 h, 0.5 h
[3] = target: 2-acylglycerol O-acyltransferase 2 (Homo sapiens, UniProt Q3SYC2); assay: Inhibition of human MGAT2 by Rapidfire LCMS assay
Caco-2 = assay: as §1; settings: caco-2
[4] = Plasma clearance in rat at 3 mg/kg, po and 1 mg/kg, iv; assay type: ADME, organism-based
[5] = Volume of distribution at steady state in rat at 3 mg/kg, po and 1 mg/kg, iv; assay type: ADME, organism-based; settings: in vivo, read-out: Vdss
Cytochrome P450 1A2 = target: T1, Cytochrome P450 1A2 (Homo sapiens, UniProt P05177); assay: Inhibition of CYP1A2 (unknown origin); assay type: ADME
T1 sequence (P05177 whole entry): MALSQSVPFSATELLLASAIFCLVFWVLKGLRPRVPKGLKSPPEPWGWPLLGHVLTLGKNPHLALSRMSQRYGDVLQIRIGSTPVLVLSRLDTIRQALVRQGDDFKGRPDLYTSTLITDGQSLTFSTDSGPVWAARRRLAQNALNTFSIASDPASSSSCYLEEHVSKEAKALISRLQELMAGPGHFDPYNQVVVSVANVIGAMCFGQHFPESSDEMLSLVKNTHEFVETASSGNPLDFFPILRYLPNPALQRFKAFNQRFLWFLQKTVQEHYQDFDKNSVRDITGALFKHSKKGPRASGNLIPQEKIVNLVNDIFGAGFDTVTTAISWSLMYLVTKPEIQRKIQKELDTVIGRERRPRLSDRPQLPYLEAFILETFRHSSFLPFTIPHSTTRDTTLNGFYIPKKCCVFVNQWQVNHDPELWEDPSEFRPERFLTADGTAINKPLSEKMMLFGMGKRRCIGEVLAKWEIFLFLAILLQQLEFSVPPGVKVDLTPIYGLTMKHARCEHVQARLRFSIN

[6] = Bioavailability in mouse at 50 mg/kg, po and 1 mg/kg, iv; assay type: ADME, organism-based; settings: in vivo
[7] = Unbound fraction in rat plasma by equilibrium dialysis method; assay type: ADME, cell-free
[8] = Aqueous solubility of the compound in phosphate buffer at pH 7.4 after 24 hrs by LC-UVMS analysis; assay type: physicochemical
[9] = Half life in rat at 3 mg/kg, po; assay type: ADME, organism-based; set-up: dose 3 mg/kg, route oral; settings: in vivo
[10] = Plasma clearance in mouse at 50 mg/kg, po and 1 mg/kg, iv; assay type: ADME, organism-based
[11] = Unbound fraction in mouse plasma by equilibrium dialysis method; assay type: ADME, cell-free
[12] = Bioavailability in rat at 3 mg/kg, po and 1 mg/kg, iv; assay type: ADME, organism-based; settings: in vivo
Cytochrome P450 3A4 = Cytochrome P450 3A4 (Homo sapiens, UniProt P08684); assay: Inhibition of CYP3A4 (unknown origin); assay type: ADME
[13] = Half life in rat at 1 mg/kg, iv; assay type: ADME, organism-based; set-up: dose 1 mg/kg, route intravenous; settings: in vivo
[14] = Half life in mouse at 50 mg/kg, po; assay type: ADME, organism-based; set-up: dose 50 mg/kg, route oral; settings: in vivo
Cytochrome P450 2C9 = Cytochrome P450 2C9 (Homo sapiens, UniProt P11712); assay: Inhibition of CYP2C9 (unknown origin); assay type: ADME
Cytochrome P450 2C19 = Cytochrome P450 2C19 (Homo sapiens, UniProt P33261); assay: Inhibition of CYP2C19 (unknown origin); assay type: ADME
Cytochrome P450 2D6 = Cytochrome P450 2D6 (Homo sapiens, UniProt P10635); assay: Inhibition of CYP2D6 (unknown origin); assay type: ADME
[15] = Half life in mouse at 1 mg/kg, iv; assay type: ADME, organism-based; set-up: dose 1 mg/kg, route intravenous; settings: in vivo
[16] = Volume of distribution at steady state in mouse at 50 mg/kg, po and 1 mg/kg, iv; assay type: ADME, organism-based; settings: in vivo, read-out: Vdss
[17] = Unbound fraction in human plasma by equilibrium dialysis method; assay type: ADME, cell-free

2-acylglycerol O-acyltransferase 2, sequence (Q3SYC2 whole entry): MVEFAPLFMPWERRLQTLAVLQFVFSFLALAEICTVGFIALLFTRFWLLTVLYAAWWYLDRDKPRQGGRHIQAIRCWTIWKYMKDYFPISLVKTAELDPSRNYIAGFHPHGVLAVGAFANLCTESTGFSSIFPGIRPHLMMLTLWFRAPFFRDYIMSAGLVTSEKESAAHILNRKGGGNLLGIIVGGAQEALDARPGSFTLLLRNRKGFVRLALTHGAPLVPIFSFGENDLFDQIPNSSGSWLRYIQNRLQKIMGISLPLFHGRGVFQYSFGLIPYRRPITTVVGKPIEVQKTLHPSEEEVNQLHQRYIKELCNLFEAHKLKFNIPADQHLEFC
Cytochrome P450 2C9, sequence (P11712 whole entry): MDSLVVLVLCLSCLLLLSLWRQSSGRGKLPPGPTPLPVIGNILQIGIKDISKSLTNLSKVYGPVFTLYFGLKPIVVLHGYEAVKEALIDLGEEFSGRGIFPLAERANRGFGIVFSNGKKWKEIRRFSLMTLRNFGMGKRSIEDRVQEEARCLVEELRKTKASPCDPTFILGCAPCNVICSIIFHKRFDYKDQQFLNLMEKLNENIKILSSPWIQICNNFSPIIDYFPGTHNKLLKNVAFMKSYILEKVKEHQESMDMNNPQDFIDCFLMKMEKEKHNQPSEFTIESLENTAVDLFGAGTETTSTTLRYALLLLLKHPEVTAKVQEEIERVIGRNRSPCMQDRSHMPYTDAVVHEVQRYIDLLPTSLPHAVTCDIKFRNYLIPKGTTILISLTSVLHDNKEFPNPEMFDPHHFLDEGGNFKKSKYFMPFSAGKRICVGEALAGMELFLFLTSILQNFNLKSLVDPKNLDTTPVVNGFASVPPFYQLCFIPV
Cytochrome P450 2C19, sequence (P33261 whole entry): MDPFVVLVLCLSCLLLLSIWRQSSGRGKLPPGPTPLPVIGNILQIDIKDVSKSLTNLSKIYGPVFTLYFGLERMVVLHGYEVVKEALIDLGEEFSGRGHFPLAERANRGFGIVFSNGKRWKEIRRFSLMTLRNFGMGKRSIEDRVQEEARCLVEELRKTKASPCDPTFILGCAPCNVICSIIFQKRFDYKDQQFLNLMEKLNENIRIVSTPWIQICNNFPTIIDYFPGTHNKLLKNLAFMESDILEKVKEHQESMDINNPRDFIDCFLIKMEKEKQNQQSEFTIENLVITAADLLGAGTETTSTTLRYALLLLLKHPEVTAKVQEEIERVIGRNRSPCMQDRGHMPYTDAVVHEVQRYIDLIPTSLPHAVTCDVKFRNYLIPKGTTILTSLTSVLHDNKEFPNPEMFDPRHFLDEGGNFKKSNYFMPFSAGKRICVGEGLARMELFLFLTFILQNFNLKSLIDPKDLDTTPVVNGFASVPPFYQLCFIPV
Cytochrome P450 3A4, sequence (P08684 whole entry): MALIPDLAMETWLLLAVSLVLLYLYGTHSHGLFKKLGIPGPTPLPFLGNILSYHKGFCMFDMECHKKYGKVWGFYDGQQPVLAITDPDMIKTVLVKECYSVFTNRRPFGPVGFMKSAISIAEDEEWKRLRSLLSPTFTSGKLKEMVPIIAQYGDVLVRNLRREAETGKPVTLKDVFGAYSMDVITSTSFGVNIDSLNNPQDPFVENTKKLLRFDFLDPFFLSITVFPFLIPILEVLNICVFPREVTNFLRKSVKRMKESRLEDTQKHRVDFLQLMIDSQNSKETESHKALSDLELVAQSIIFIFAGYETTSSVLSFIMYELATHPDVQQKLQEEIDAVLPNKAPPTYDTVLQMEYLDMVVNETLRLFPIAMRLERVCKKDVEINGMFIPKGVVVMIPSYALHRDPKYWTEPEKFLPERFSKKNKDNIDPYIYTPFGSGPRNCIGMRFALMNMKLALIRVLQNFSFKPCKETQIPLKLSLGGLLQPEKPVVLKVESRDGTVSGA
Cytochrome P450 2D6, sequence (P10635 whole entry): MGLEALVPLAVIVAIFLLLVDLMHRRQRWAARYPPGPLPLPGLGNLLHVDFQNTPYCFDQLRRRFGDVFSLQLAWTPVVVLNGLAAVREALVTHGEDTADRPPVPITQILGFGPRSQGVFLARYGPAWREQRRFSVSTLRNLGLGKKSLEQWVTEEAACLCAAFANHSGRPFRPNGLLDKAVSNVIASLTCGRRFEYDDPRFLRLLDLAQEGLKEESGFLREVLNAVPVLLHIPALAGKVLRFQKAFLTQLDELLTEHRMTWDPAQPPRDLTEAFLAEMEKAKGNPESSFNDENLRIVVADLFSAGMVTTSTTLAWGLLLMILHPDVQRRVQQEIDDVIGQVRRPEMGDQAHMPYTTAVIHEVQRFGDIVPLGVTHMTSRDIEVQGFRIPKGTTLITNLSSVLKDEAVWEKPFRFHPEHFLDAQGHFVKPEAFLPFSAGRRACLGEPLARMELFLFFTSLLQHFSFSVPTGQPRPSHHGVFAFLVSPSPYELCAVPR

SMILES | Papp A→B [1] | logD at 0.5 h [2] | IC50 [3] | also measured
CCc1cc(S(=O)(=O)Nc2ccc(F)cc2F)cc2c1NC(=O)C(C)(CC)NC2=O (racemic) | 24 ×10⁻⁶ cm/s | 2.1 | 4 nM | –
CC[C@]1(C)NC(=O)c2cc(S(=O)(=O)Nc3ccc(C(F)(F)F)cc3F)ccc2NC1=O | 9 ×10⁻⁶ cm/s | 1.7 | 12 nM | –
CC1(C)NC(=O)c2cc(S(=O)(=O)Nc3ccc(C(F)(F)F)cc3)cc(F)c2NC1=O | 14 ×10⁻⁶ cm/s | 2.3 | 1950 nM | –
COc1c(S(=O)(=O)Nc2ccc(C(F)(F)F)cc2)ccc2c1C(=O)NC(C)(C)C(=O)N2 | 7 ×10⁻⁶ cm/s | 1.9 | > 100000 nM | –
CC1(C)NC(=O)c2cc(S(=O)(=O)Nc3ccc(F)cc3F)cc(C#N)c2NC1=O | 3 ×10⁻⁶ cm/s | – | 405 nM | –
CC[C@]1(C)NC(=O)c2cc(S(=O)(=O)Nc3ccc(F)cc3F)ccc2NC1=O | 8 ×10⁻⁶ cm/s | 1.7 | – | –
CCC1(C)NC(=O)c2cc(S(=O)(=O)Nc3ccc(C(F)(F)F)cc3F)cc(Cl)c2NC1=O (stereo not drawn) | 29 ×10⁻⁶ cm/s | 1.8 | 12 nM | –
CC1(C)NC(=O)c2cc(S(=O)(=O)Nc3ccc(C(F)(F)F)cc3)cnc2NC1=O | 10 ×10⁻⁶ cm/s | 1.8 | > 66000 nM | –
COc1cc2c(cc1S(=O)(=O)Nc1ccc(C(F)(F)F)cc1)C(=O)NC(C)(C)C(=O)N2 | 1 ×10⁻⁶ cm/s | 2.8 | 7610 nM | –
Cc1cc(S(=O)(=O)Nc2ccc(C(F)(F)F)cc2)cc2c1NC(=O)C(C)(C)NC2=O | 7 ×10⁻⁶ cm/s | 2.6 | 52 nM | –
CCC1(C)NC(=O)c2cc(S(=O)(=O)Nc3ccc(F)cc3F)cc(C)c2NC1=O (single isomer, unassigned; enantiomer 2) | 14 ×10⁻⁶ cm/s | 5.4 | 62 nM | –
CC1(C)NC(=O)c2cc(S(=O)(=O)Nc3ccc(F)cc3F)ccc2NC1=O | 5 ×10⁻⁶ cm/s | 1.3 | 58 nM | –
CCC1(C)NC(=O)c2cc(S(=O)(=O)Nc3ccc(F)cc3F)cc(OC)c2NC1=O (racemic) | 22 ×10⁻⁶ cm/s | 1.8 | 10 nM | –
CCC1(C)NC(=O)c2cc(S(=O)(=O)Nc3ccc(C)cc3C#N)cc(Cl)c2NC1=O (single isomer, unassigned) | 11 ×10⁻⁶ cm/s | 0.6 | 117 nM | –
CCC1(C)NC(=O)c2cc(S(=O)(=O)Nc3ccc(F)cc3F)cc(C)c2NC1=O (single isomer, unassigned) | – | – | 7 nM | Papp (Caco-2): 9 ×10⁻⁶ cm/s; logD [2]: 6.5
CC1(C)NC(=O)c2cc(S(=O)(=O)Nc3ccc(F)cc3F)cc(C(F)(F)F)c2NC1=O | 46 ×10⁻⁶ cm/s | 1.9 | 30 nM | –
CC1(C)NC(=O)c2cc(S(=O)(=O)Nc3ccc(C(F)(F)F)cc3)c(F)cc2NC1=O | – | – | 1490 nM | –
CCC1(C)NC(=O)c2cc(S(=O)(=O)Nc3ccc(C(F)(F)F)cc3OC)cc(Cl)c2NC1=O (stereo not drawn) | 58 ×10⁻⁶ cm/s | 3 | 7 nM | –
CC1(C)NC(=O)c2c(ccc(S(=O)(=O)Nc3ccc(C(F)(F)F)cc3)c2F)NC1=O | 4 ×10⁻⁶ cm/s | 2.4 | 40400 nM | –
CCC1(C)NC(=O)c2cc(S(=O)(=O)Nc3ccc(C)cc3C#N)cc(Cl)c2NC1=O (single isomer, unassigned; enantiomer 1) | – | – | 23 nM | Papp (Caco-2): 14 ×10⁻⁶ cm/s; logD [2]: 0.4
CCC1(C)NC(=O)c2cc(S(=O)(=O)Nc3ccc(F)cc3F)cc(Cl)c2NC1=O (stereo not drawn) | 35 ×10⁻⁶ cm/s | 1.9 | 9 nM | clearance [4]: 4.1 mL/min/kg; Vd [5]: 0.4 L/kg; IC50 (Cytochrome P450 1A2): > 30000 nM; bioavailability [6]: 74%; fraction unbound [7]: 0.03; solubility at 24 h [8]: 150 µM (≈ 66.6 µg/mL); half-life [9]: 2.4 h; clearance [10]: 29 mL/min/kg; fraction unbound [11]: 0.037; bioavailability [12]: 69%; IC50 (Cytochrome P450 3A4): > 30000 nM; half-life [13]: 1.3 h; half-life [14]: 1.2 h; IC50 (Cytochrome P450 2C9): > 30000 nM; IC50 (Cytochrome P450 2C19): 27000 nM; IC50 (Cytochrome P450 2D6): > 30000 nM; half-life [15]: 0.2 h; Vd [16]: 0.5 L/kg; fraction unbound [17]: 0.017
CC1(C)NC(=O)c2cc(S(=O)(=O)Nc3ccc(C(F)(F)F)cc3)ncc2NC1=O | 1 ×10⁻⁶ cm/s | 1.6 | 10500 nM | –
Cc1cc(S(=O)(=O)Nc2ccc(F)cc2F)cc2c1NC(=O)C(C)(C)NC2=O | 10 ×10⁻⁶ cm/s | 1.4 | 16 nM | –
Cc1cc2c(cc1S(=O)(=O)Nc1ccc(C(F)(F)F)cc1)C(=O)NC(C)(C)C(=O)N2 | – | – | 13400 nM | –
Cc1c(S(=O)(=O)Nc2ccc(C(F)(F)F)cc2)ccc2c1C(=O)NC(C)(C)C(=O)N2 | 9 ×10⁻⁶ cm/s | – | 13600 nM | –
CC1(C)NC(=O)c2cc(S(=O)(=O)Nc3ccc(C(F)(F)F)cc3)ccc2NC1=O | 6 ×10⁻⁶ cm/s | 2.6 | 911 nM | –
COc1cc(S(=O)(=O)Nc2ccc(C(F)(F)F)cc2)cc2c1NC(=O)C(C)(C)NC2=O | 12 ×10⁻⁶ cm/s | 2.6 | 109 nM | –
